Results as given in US20250344698A1, “A METHOD OF CONTROLLING WEEDS” (SYNGENTA CROP PROTECTION AG, priority 2022, published 2025).

Tests used:
Type in all cases: in vivo
[1] = test system: Amaranthus palmeri population homozygous for a glycine at codon 128 in PPX2L ('128G'); assay: Postemergence glasshouse test, dead or alive assessment, 128G population; settings: 14 days after application; for Average % Survival of 14 repetitions: R128G
Description: (§1) The commercial standard PPO inhibitor fomesafen and compound 8 of the present application were applied to three Amaranthus palmeri populations in order to determine the impact of mutations at codon 128 in PPX2L from the wild-type arginine to a glycine or methionine.
(§2) Seeds were sown in seed trays containing ericaceous compost and covered with vermiculite. When approximately 1 inch in height plants were transplanted 1 per pot into 3 inch diameter pots containing ericaceous compost. The pots were watered and maintained in a glasshouse providing a 16 H photoperiod of 180 μmol m^−2 s^−1 with temperatures of 24° C. day and 18° C. night and 65% relative humidity until 3 inches tall at which point the herbicides were applied at the use rates specified in Table 1 below to 14 individual plants per rate of each of the biotypes.
(§3) All treatments were applied as dilutions in reverse osmosis water and with the commercial adjuvant Adigor® at 0.5% by volume. Prior to dilution with water compound 8 was initially dissolved to a 5% solution in a solvent mixture comprising 11.12% Emulsogen EL 360, 44.44% Dowanol DPM and 44.44% N-methyl pyrrolidone. Herbicide applications were carried out in a track sprayer with a flat fan nozzle applying the herbicide treatments at a rate of 200 L/ha^−1.
(§4) After treatment, the plants were watered and maintained in a glasshouse providing a 16 H photoperiod of 180 μmol m^−2 s^−1 with temperatures of 24° C. day and 18° C. night and 65% relative humidity until 14 days after application at which point they were assessed on a ‘dead or alive’ basis. The plants still alive at this point were classed as surviving the herbicide application and the averaged results of this assessment are presented in Table 1.

[2] = test system: Amaranthus palmeri population homozygous for a methionine at codon 128 in PPX2L ('128M'); assay: Postemergence glasshouse test, dead or alive assessment, 128M population; settings: 14 days after application; for use rate achieving complete control (i.e. no surviving plants): '128M' population, postemergence; for Average % Survival of 14 repetitions: R128M
Description: as §1, §2, §3, §4

[3] = test system: Amaranthus palmeri known PPO inhibitor sensitive population ('Sensitive'); assay: Postemergence glasshouse test, dead or alive assessment, PPO inhibitor sensitive population; settings: 14 days after application; for use rate achieving complete control (i.e. no surviving plants): 'Sensitive' population, postemergence; for Average % Survival of 14 repetitions: Sensitive
Description: as §1, §2, §3, §4

| Compound | Average % Survival of 14 repetitions ([1]; 0.25 g ai/ha^−1 postemergence) [%] | Average % Survival of 14 repetitions ([1]; 0.5 g ai/ha^−1 postemergence) [%] | Average % Survival of 14 repetitions ([1]; 1 g ai/ha^−1 postemergence) [%] | Average % Survival of 14 repetitions ([1]; 2 g ai/ha^−1 postemergence) [%] | Average % Survival of 14 repetitions ([1]; 4 g ai/ha^−1 postemergence) [%] | Average % Survival of 14 repetitions ([1]; 8 g ai/ha^−1 postemergence) [%] | Average % Survival of 14 repetitions ([1]; 16 g ai/ha^−1 postemergence) [%] | Average % Survival of 14 repetitions ([1]; 32 g ai/ha^−1 postemergence) [%] | Average % Survival of 14 repetitions ([1]; 64 g ai/ha^−1 postemergence) [%] | Average % Survival of 14 repetitions ([1]; 128 g ai/ha^−1 postemergence) [%] | use rate achieving complete control (i.e. no surviving plants) [2] [g ai/ha^−1] | Average % Survival of 14 repetitions ([2]; 0.25 g ai/ha^−1 postemergence) [%] | Average % Survival of 14 repetitions ([2]; 0.5 g ai/ha^−1 postemergence) [%] | Average % Survival of 14 repetitions ([2]; 1 g ai/ha^−1 postemergence) [%] | Average % Survival of 14 repetitions ([2]; 2 g ai/ha^−1 postemergence) [%] | Average % Survival of 14 repetitions ([2]; 4 g ai/ha^−1 postemergence) [%] | Average % Survival of 14 repetitions ([2]; 8 g ai/ha^−1 postemergence) [%] | Average % Survival of 14 repetitions ([2]; 16 g ai/ha^−1 postemergence) [%] | Average % Survival of 14 repetitions ([2]; 32 g ai/ha^−1 postemergence) [%] | Average % Survival of 14 repetitions ([2]; 64 g ai/ha^−1 postemergence) [%] | further results |
| --- | --- | --- | --- | --- | --- | --- | --- | --- | --- | --- | --- | --- | --- | --- | --- | --- | --- | --- | --- | --- | --- |
| CCOC(=O)C1(C)CC(c2cc(-n3c(=O)cc(C(F)(F)F)n(C)c3=O)c(F)cc2Cl)=NO1 (stereo not drawn) [Compound 8, 3-(2-chloro-4-fluoro-5-(3-methyl-2,6-dioxo-4-trifluoromethyl-3,6-dihydropyrimidin-1(2H)-yl)phenyl)-5-methyl-4,5-dihydroisoxazole-5-carboxylic acid ethyl ester] | 100 | 100 | 100 | 100 | 93 | 50 | 0 | 0 | 0 | 0 | 16 | 100 | 100 | 100 | 100 | 79 | 57 | 0 | 0 | 0 | use rate achieving complete control (i.e. no surviving plants) ([1]; '128G' population, postemergence): 16 g ai/ha^−1; Average % Survival of 14 repetitions ([2]; 128 g ai/ha^−1 postemergence): 0%; use rate achieving complete control (i.e. no surviving plants) [3]: 8 g ai/ha^−1; Average % Survival of 14 repetitions ([3]; 0.25 g ai/ha^−1 postemergence): 100%; Average % Survival of 14 repetitions ([3]; 0.5 g ai/ha^−1 postemergence): 100%; Average % Survival of 14 repetitions ([3]; 1 g ai/ha^−1 postemergence): 50%; Average % Survival of 14 repetitions ([3]; 2 g ai/ha^−1 postemergence): 43%; Average % Survival of 14 repetitions ([3]; 4 g ai/ha^−1 postemergence): 14%; Average % Survival of 14 repetitions ([3]; 8 g ai/ha^−1 postemergence): 0%; Average % Survival of 14 repetitions ([3]; 16 g ai/ha^−1 postemergence): 0%; Average % Survival of 14 repetitions ([3]; 32 g ai/ha^−1 postemergence): 0%; Average % Survival of 14 repetitions ([3]; 64 g ai/ha^−1 postemergence): 0%; Average % Survival of 14 repetitions ([3]; 128 g ai/ha^−1 postemergence): 0% |
| CS(=O)(=O)NC(=O)c1cc(Oc2ccc(C(F)(F)F)cc2Cl)ccc1[N+](=O)[O-] [Fomesafen] | 100 | 100 | 100 | 100 | 100 | 100 | 100 | 93 | 36 | 36 | 128 | 100 | 100 | 100 | 100 | 100 | 100 | 93 | 43 | 21 | individuals killed ([1]; '128G' population, 128 g ai/ha^−1): 5/14; Average % Survival of 14 repetitions ([2]; 128 g ai/ha^−1 postemergence): 0%; use rate achieving complete control (i.e. no surviving plants) [3]: 8 g ai/ha^−1; Average % Survival of 14 repetitions ([3]; 0.25 g ai/ha^−1 postemergence): 100%; Average % Survival of 14 repetitions ([3]; 0.5 g ai/ha^−1 postemergence): 100%; Average % Survival of 14 repetitions ([3]; 1 g ai/ha^−1 postemergence): 93%; Average % Survival of 14 repetitions ([3]; 2 g ai/ha^−1 postemergence): 71%; Average % Survival of 14 repetitions ([3]; 4 g ai/ha^−1 postemergence): 14%; Average % Survival of 14 repetitions ([3]; 8 g ai/ha^−1 postemergence): 0%; Average % Survival of 14 repetitions ([3]; 16 g ai/ha^−1 postemergence): 0%; Average % Survival of 14 repetitions ([3]; 32 g ai/ha^−1 postemergence): 0%; Average % Survival of 14 repetitions ([3]; 64 g ai/ha^−1 postemergence): 0%; Average % Survival of 14 repetitions ([3]; 128 g ai/ha^−1 postemergence): 0% |
